The values that follow are results of earlier work, collected in US20030109488A1, “Methods for treating dry eye” (Alcon, Inc., priority 2001, published 2003).

The data set relates to human conjunctival epithelial cells. To be noted: background statement, no data given.

Turning to `CCCCC[C@H](O)/C=C/C=C\C/C=C\C/C=C\CCCC(=O)O` [15-HETE], the “secretion of mucin-1 (MUC-1)” value is listed as “increase the secretion of mucin-1 (MUC-1)”.
